Laboratory results from the METLIN SMRT retention time set (Domingo-Almenara et al. 2019).

Test: gradient 5% acetonitrile 3 min, to 50% in 2 min, to 85% in 15 min, held 3 min, 100 µL/min
Conditions: column: Zorbax Extend-C18 2.1 x 50 mm; eluents: water / acetonitrile, 0.1% formic acid
How it was run: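 Data were gathered over 3 months by HPLC coupled to a quadrupole time-of-flight mass spectrometer, operated in positive and negative ionization mode. Mixtures of ~100 pure standards ran on a Zorbax Extend-C18 column (2.1 × 50 mm, 1.8 μm) at 100 μL/min, with water and acetonitrile each containing 0.1% formic acid and dead and dwell volumes of 40 μL and 900 μL. Retention time was read from adduct peaks picked by computer and checked manually.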

| SMILES | RP-LC retention time [s] |
| --- | --- |
| CCOc1ccc(NC(=O)C2CCN(S(=O)(=O)c3ccc4c(c3)sc(=O)n4CC)CC2)cc1 | 924 |
| O=S(=O)(Nc1ccc(Cl)cc1)c1c[nH]c2ncccc12 | 750 |
| CCc1noc2nc(CCC(=O)NCCOC)nc(N3CCCCC3)c12 | 724 |
| Cc1sc2ncnc(N3CCCC(C)C3)c2c1C(=O)Nc1ccc(Cl)cc1F (centres undefined) | 1330 |
| Cc1cc2[nH]c(C(=O)Nc3ccc(F)cc3)c(CN3CCOCC3)c2s1 | 666 |
| Cc1cc(C)cc(N2CCC(NC(=O)CC(C)(C)C)C2=O)c1 (centres undefined) | 877 |
| CCN1CCN(c2nc(F)c3c(c2F)S(=O)(=O)CCN3C2CCCCC2)CC1 | 700 |
| CCC(C)NC(=O)Cn1c(=O)cc(-c2nc(C(C)C)no2)c2ccccc21 (centres undefined) | 707 |
| Cc1nc(-c2cccc(F)c2)sc1C(=O)NC1CC1 | 827 |
| COc1ccc(S(=O)(=O)Nc2cc(-c3cn4cccc(C)c4n3)ccc2C)cc1C | 707 |
| Cc1sc(NC(=O)c2cccc(Cl)c2)nc1-c1ccc2c(c1)NC(=O)C(C)O2 (centres undefined) | 1040 |
| CC(C)N1C(=O)c2cccnc2Sc2cc(NC(=O)c3cccs3)ccc21 | 837 |
| CC(C)N1C(=O)C(C)N(C(=O)NC2CCCC2)c2cccnc21 (centres undefined) | 924 |
| COc1ccc(NC(=O)N2CCC(c3nc(C(=O)N(C)C)c(C)o3)CC2)cc1Cl | 840 |

Next, values leading:

| RP-LC retention time [s] | SMILES |
| --- | --- |
| 821 | O=C(Nc1nc2ccccc2s1)C1CCN(C(=O)c2cccc(F)c2)CC1 |
| 604 | Fc1cccc(CN2CCc3nc(N4CCOCC4)ncc3C2)c1 |
| 659 | CC(=O)Nc1nsc(N2CCC(C(=O)NCc3ccccc3F)CC2)n1 |
| 1030 | CCC1CCCCN1C(=O)CN1CN(c2ccc(C)cc2)c2ncccc2S1(=O)=O (centres undefined) |
| 830 | C[C@H]1CN(C(=O)c2ccc3ccccc3n2)C[C@@H]1c1nc(-c2ccncc2)no1 |
| 822 | COCCn1cc2c3c(cccc31)CN(C(=O)NCc1ccc(OC)cc1)CC2 |
| 785 | CN(C(=O)C1CCCN(c2ncnc3c2nc2n3CCCCC2)C1)c1ccccc1F (centres undefined) |
| 950 | Cc1ccc(NC(=O)CSc2nccc(N3CCN(c4cc(C)ccc4C)CC3)n2)cc1 |
| 606 | CC(=O)Nc1ccc(CCc2nc3ccc(C(=O)NCc4ccco4)cc3[nH]2)cc1 |
| 648 | COc1cccc(N2CCN(C(=O)C3CCN(c4cncnc4N(C)C)CC3)CC2)c1 |
| 988 | CCc1ccc(Oc2cc(N3CCC(C(=O)NCc4ccc(OC)cc4)CC3)ncn2)cc1 |
| 1270 | Cc1sc(NC(=O)Cc2csc(-c3ccccc3)n2)nc1-c1ccc(Br)cc1 |
| 813 | Cc1cc(N2CCCC2)nc(N2CCN(C(=O)c3ccc(-c4ccccc4)cc3)CC2)n1 |
| 994 | CCc1nc(-c2csc(S(=O)(=O)N3CCC(C(=O)Nc4ccc(C)c(Cl)c4)CC3)c2)no1 |
| 767 | Cc1ccccc1C(=O)N1CCC2(C1)C(=O)N(C)c1ccccc12 (centres undefined) |
